Data on four molecules can be found in article doi:10.1101/2021.07.28.21261232v1 (medrxiv, 2021).

Some results are limits rather than exact numbers.

One data set is described as follows: in vitro. The settings on record: human, microsomes.
For a further data set, the target named is Bovine Chymotrypsin (Bos taurus, UniProt P00766).
Another data set deals with Human Thrombin (Homo sapiens, UniProt P00734).
The target of another data set is Human Elastase. The settings on record: pH 8.0, room temperature, 50 mM Tris, 100 mM NaCl, Brij 35.

Broadly, the microsomal CLint is the rate of metabolic loss divided by the concentration. A high value points to rapid turnover. Regarding `COc1cccc2[nH]c(C(=O)N[C@@H](CC(C)C)C(=O)N[C@@H](C[C@@H]3CCNC3=O)C(=O)CO)cc12` [compound 1, PF-00835231], the intrinsic clearance (microsomal CLint) in the data set “in vitro” worked out at 7.47 ± 0.88 µL/min/mg. On the same count and under the same terms, in the case of `COc1cccc2[nH]c(C(=O)N[C@@H](CC(C)C)C(=O)N[C@H](C#N)C[C@@H]3CCNC3=O)cc12` [compound 2, N-[(2S)-1-({(1S)-1-Cyano-2-[(3S)-2-oxopyrrolidin-3-yl]ethyl}amino)-4-methyl-1-oxopentan-2-yl]-4-methoxy-1H-indole-2-carboxamide] it was 34.4 ± 0.7 µL/min/mg; in that of `CC(C)[C@H](NS(C)(=O)=O)C(=O)N1C[C@H]2[C@@H]([C@H]1C(=O)N[C@@H](C[C@@H]1CCNC1=O)C(=O)c1nc3ccccc3s1)C2(C)C` [compound 4, (1R,2S,5S)-N-{(2S)-1-(1,3-Benzothiazol-2-yl)-1-oxo-3-[(3S)-2-oxopyrrolidin-3-yl]propan-2-yl}-6,6-dimethyl-3-[N-(methylsulfonyl)-L-valyl]-3-azabicyclo[3.1.0]hexane-2 carboxamide], 127 ± 3 µL/min/mg. For orientation: IC50 means the concentration at which inhibition is half-maximal. On to `CC(C)(C)[C@H](NC(=O)C(F)(F)F)C(=O)N1C[C@H]2[C@@H]([C@H]1C(=O)N[C@H](C#N)C[C@@H]1CCNC1=O)C2(C)C` [compound 6, (1R,2S,5S)-N-{(1S)-1-Cyano-2-[(3S)-2-oxopyrrolidin-3-yl]ethyl}-6,6-dimethyl-3-[3-methyl-N-(trifluoroacetyl)-L-valyl]-3-azabicyclo[3.1.0]hexane-2-carboxamide], for which the half-maximal inhibitory concentration (IC50) at Bovine Chymotrypsin, against Human Thrombin and against Human Elastase was over 100 µM each time.
